Results published in patent publication US6316594A, “Antimicrobial peptide isolated from parasilurus asotus and its uses” (priority 1998, dated 2001).
Peptide text beside a SMILES is read from it.

Tests used:
[1] = tested on: Bacillus subtilis ATCC 62037; experiment: MIC, microdilution in 96-well plate; type: cell-based; details: overnight 37° C., 3% TSB
Text: (§1) All of the microorganisms used in the invention were obtained from the American Type Culture Collection (ATCC) Used were Bacillus subtilis ATCC 62037, Staphylococcus aureus ATCC 15752, Streptococcus mutans ATCC 25175, Pseudomonas putida ATCC 17426, Escherichia coli ATCC 27325, Salmonella typhimurium ATCC 15277, Seratia sp. ATCC 21074, Cryptococcus neoformans ATCC 34881, Saccharomyces cerevisiae ATCC 44774 and Candida albicans ATCC 10231.
(§2) The parasin I and its derivatives obtained in Example I were lyophilized, resuspended in water and assayed for antimicrobial activity against B. subtilis ATCC 62037. The purity of the isolated peptides was analyzed by reverse-phase HPLC and MALDI-MS (Kratos Kompact MALDI, England). The antimicrobial activity of the samples was determined during each purification step by the radial diffusion assay using B. subtilis ATCC 62037 according to the method of Lehrer et al. ((1991) J. Immunol. Methods, 137, 167-173). A 20 ml culture of B. subtilis ATCC 62037 cell in mid-logarithmic phase was washed with 10 mM sodium phosphate buffer (NAPB), pH 7.4, at […], and resuspended in 10 ml of the same buffer. A cell suspension containing 1×10^6 bacterial colony forming units (CFUs) was added to 6 ml of an underlayer agar (10 mM sodium phosphate, 1% (v/v) trypticase soy broth (TSB), 1% (w/v) agarose, pH 6.5) and this resulting mixture was poured into a Petri dish. Samples were added, at an amount of 5 μl, directly in 3-mm wells which were made on the solidified underlayer agar. After incubation for 3 hours at 37° C., the underlayer agar was covered with a nutrient-rich top agar overlay (6% (w/v) TSB, 1% (w/v) agarose) and incubated overnight at 37° C. Antimicrobial activity was determined by observing the zone of suppression of bacterial growth around the 3-mm wells. The minimal inhibitory concentrations (MICs) of the isolated peptide against the microorganisms were determined as described by Moore et al. ((1991) J. Biol. Chem., 266, 19851-19857). 100 μl microorganism suspensions (10^5 CFU/ml) in 3% (w/v) TSB were mixed with serial two-fold dilutions of the isolated peptide in a sterilized 96-well microtiter plate (Nunc, Denmark). The final concentration of the peptide ranged 0.5-200 μg/ml. The 96-well plate was incubated overnight at 37° C. and the inhibition of growth was determined by measuring the absorbance at 620 nm on a microplate reader, such as that sold by B10-Rad, U.S.A., under the brand name of Model 550. The MIC was defined as the lowest concentration of peptide that inhibited growth. In respect to the test for antimicrobial activity, 10 different microorganisms, including Gram-negative bacteria, Gram-positive bacteria and fungi were used.

[2] = tested on: Candida albicans ATCC 10231; experiment: MIC, microdilution in 96-well plate; type: cell-based; details: overnight 37° C., 3% TSB
Text: as §1, §2

[3] = tested on: Cryptococcus neoformans ATCC 34881; experiment: MIC, microdilution in 96-well plate; type: cell-based; details: overnight 37° C., 3% TSB
Text: as §1, §2

[4] = tested on: Escherichia coli ATCC 27325; experiment: MIC, microdilution in 96-well plate; type: cell-based; details: overnight 37° C., 3% TSB
Text: as §1, §2

[5] = tested on: Pseudomonas putida ATCC 17426; experiment: MIC, microdilution in 96-well plate; type: cell-based; details: overnight 37° C., 3% TSB
Text: as §1, §2

[6] = tested on: Saccharomyces cerevisiae ATCC 44774; experiment: MIC, microdilution in 96-well plate; type: cell-based; details: overnight 37° C., 3% TSB
Text: as §1, §2

[7] = tested on: Salmonella typhimurium ATCC 15277; experiment: MIC, microdilution in 96-well plate; type: cell-based; details: overnight 37° C., 3% TSB
Text: as §1, §2

Serratia sp. = experiment: MIC, microdilution in 96-well plate; type: cell-based; details: overnight 37° C., 3% TSB
Text: as §1, §2

[8] = tested on: Staphylococcus aureus ATCC 15752; experiment: MIC, microdilution in 96-well plate; type: cell-based; details: overnight 37° C., 3% TSB
Text: as §1, §2

[9] = tested on: Streptococcus mutans ATCC 25175; experiment: MIC, microdilution in 96-well plate; type: cell-based; details: overnight 37° C., 3% TSB
Text: as §1, §2

human erythrocytes = experiment: Hemolytic activity assay; details: peptide 200 μg/ml
Method: The hemolytic activity of the antimicrobial peptide was assayed as described by Park et al. (9).

Compound | MIC [1] | MIC [2] | MIC [3] | MIC [4] | MIC [5] | MIC [6] | MIC [7] | MIC (Serratia sp.) | MIC [8] | MIC [9] | hemolysis (human erythrocytes)
Buforin I [reference compound] | 4 µg/mL | 4 µg/mL | 4 µg/mL | 8 µg/mL | 4 µg/mL | 4 µg/mL | 4 µg/mL | 8 µg/mL | 4 µg/mL | 8 µg/mL | –
K G R G K Q G G K V R A K A K (KGRGKQGGKVRAKAK) [Seq. No. 3, synthetic derivative deficient of 4 carboxyl terminal residues of parasin I] | 1 µg/mL | 4 µg/mL | 2 µg/mL | 1 µg/mL | 2 µg/mL | 2 µg/mL | 2 µg/mL | 4 µg/mL | 2 µg/mL | 1 µg/mL | –
Magainin 2 [reference compound] | 50 µg/mL | 25 µg/mL | 12 µg/mL | 100 µg/mL | 50 µg/mL | 25 µg/mL | 25 µg/mL | 50 µg/mL | 50 µg/mL | 100 µg/mL | –
CC(C)[C@H](NC(=O)[C@H](CCCCN)NC(=O)CNC(=O)CNC(=O)[C@H](CCC(N)=O)NC(=O)[C@H](CCCCN)NC(=O)CNC(=O)[C@H](CCCNC(=N)N)NC(=O)CNC(=O)[C@@H](N)CCCCN)C(=O)N[C@@H](CCCNC(=N)N)C(=O)N[C@@H](C)C(=O)N[C@@H](CCCCN)C(=O)N[C@@H](C)C(=O)N[C@@H](CCCCN)C(=O)N[C@H](C(=O)N[C@@H](CCCNC(=N)N)C(=O)N[C@@H](CO)C(=O)N[C@@H](CO)C(=O)O)[C@@H](C)O [Parasin I, Lys-Gly-Arg-Gly-Lys-Gln-Gly-Gly-Lys-Val-Arg-Ala-Lys-Ala-Lys-Thr-Arg-Ser-Ser] (H-KGRGKQGGKVRAKAKTRSS-OH) | – | – | – | – | – | – | – | – | – | – | 0.2%
K G R G K Q G G K V R A K A K T R S S (KGRGKQGGKVRAKAKTRSS) [Seq. No. 1] | 0.5 µg/mL | 1 µg/mL | 1 µg/mL | 0.5 µg/mL | 2 µg/mL | 1 µg/mL | 1 µg/mL | 4 µg/mL | 1 µg/mL | 0.5 µg/mL | –
K G R G K Q G G K V R A K A K T R (KGRGKQGGKVRAKAKTR) [Seq. No. 2, synthetic derivative deficient of 2 carboxyl terminal residues of parasin I] | 0.5 µg/mL | 1 µg/mL | 1 µg/mL | 0.5 µg/mL | 2 µg/mL | 2 µg/mL | 1 µg/mL | 2 µg/mL | 1 µg/mL | 0.5 µg/mL | –
